# In patent US20240192235A1, “CERAMIDE AND SPINGOMYELIN IN NEUROLOGICAL DISORDERS” (Duke University, priority 2021, published 2024):
# Tests used:
# SP1 R1 = SP1 R1 (Homo sapiens, UniProt P21453); details: cited from earlier work
# [1] = Fingolimod plasma concentration after oral administration to WT mice (UHPLC, MS-MS); format: in vivo; details: both sexes, C57BL/6J, mouse, oral 1 mg/kg/day, read-out: Fingolimod levels in plasma
# Experimental: To determine if fingolimod (e.g., Gilenya®, Novartis) oral administration achieves appropriate plasma concentration, 8 WT mice at 7 months old (50% females) were treated with fingolimod at 1 mg/kg/day for 4 wks. Plasma samples were collected at two time points (2nd and 4th weeks) after treatment and analyzed by UHPLC and MS-MS. Fingolimod levels in plasma were in ng/mL: 2nd week=8.03±0.24 and 4th week=10.02±0.4.
# WT and APP/PS1 mice [2] = experiment: Barnes Maze task; format: in vivo; details: 1 mg/kg/day for eight weeks, probe trial
# Description: (§1) APPswe/PS1dE9 (referred to as APP/PS1) and C57BI/6J (referred to as WT) mice were purchased from The Jackson Laboratory. The APP/PS1 is a double transgenic mouse expressing a chimeric mouse/human amyloid precursor protein (Mo/HuAPP695swe) and a mutant human presenilin 1 (PS1-dE9), both directed to CNS neurons. 50% of animals used in all experiments were male.
# (§2) APP/PS1 mice and their WT littermates were used to examine fingolimod effects in vivo. Fingolimod treatment was provided in drinking water in a dark container and changed every 48 h to provide 1 mg/kg/day.
# The behavioral apparatus consisted of a white flat, circular disk with 20 holes around its perimeter. One hole held the entrance to a darkened escape box not visible from the surface of the board, allowing the subject to exit the maze. The escape chamber position remained fixed during all trials. Mice learn the location of the escape hole using spatial reference points that were fixed in relation to the maze (extra-maze cues). The task consisted of one habituation trial on day 1 where the escape hole was presented to the animal, the animal remained in the escape box for 2 min. […] All sessions were recorded using Debut video software and assessed through ANY-maze software. For each trial, several parameters were recorded to assess performance. […] For the probe trial, time spent in the target quadrant and target hole were analyzed. […]
# WT and APP/PS1 mice [3] = experiment: Novel object recognition (NOR) test; format: in vivo; details: 1 mg/kg/day for eight weeks
# Description: as §1, §2
# Mice were habituated to experimental apparatus consisting of a gray rectangular open field (60 cm×50 cm×26 cm) for 5 min in the absence of any objects for 3 days. On the third day, after the habituation trial, mice were placed in the experimental apparatus in the presence of two identical objects and allowed to explore them for 5 min. […] All sessions were recorded using Noldus Media Recorder software. Exploration of the objects was defined as the mice facing and sniffing the objects within 2 cm distance and/or touching them, assessed with ANY-maze software. The ability of the mouse to recognize the novel object (discrimination index) was determined by dividing the mean time exploring the novel object by the mean of the total time exploring the novel and familiar objects during the test session. […]
# [4] = cited from earlier work
# [5] = fingolimod-treated APP/PS1 mice
# Sequence of SP1 R1 (P21453 whole entry): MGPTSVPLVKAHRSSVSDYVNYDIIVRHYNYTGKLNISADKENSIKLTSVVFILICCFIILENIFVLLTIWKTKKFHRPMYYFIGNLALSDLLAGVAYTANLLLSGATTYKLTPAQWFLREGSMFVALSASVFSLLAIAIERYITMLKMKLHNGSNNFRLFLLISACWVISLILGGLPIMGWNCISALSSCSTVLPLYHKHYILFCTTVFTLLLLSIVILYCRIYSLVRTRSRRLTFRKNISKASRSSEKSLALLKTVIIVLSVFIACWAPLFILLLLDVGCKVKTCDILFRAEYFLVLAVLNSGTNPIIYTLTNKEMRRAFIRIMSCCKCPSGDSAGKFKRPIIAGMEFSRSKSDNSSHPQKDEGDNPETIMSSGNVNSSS
structure (smiles),measurement,setting,value
FC(F)(F)c1cccc(-c2noc(-c3cc(-c4ccccc4)c(C(F)(F)F)s3)n2)c1 [SEW2871],Aβ mediated behavior abnormalities,SP1 R1,improve
same,tau phosphorylation,SP1 R1,decrease
CCCCCCCCc1ccc(CCC(N)(CO)CO)cc1 [fingolimod],concentration at 2 weeks,[1]; 2nd week,8.03 ± 0.24 ng/mL
same,concentration at 4 weeks,[1]; 4th week,10 ± 0.4 ng/mL
same,percentage of time spent in the target quadrant,WT and APP/PS1 mice [2]; [5],54.81±9.15%
same,percentage of time spent in the target quadrant,WT and APP/PS1 mice [2]; fingolimod-treated WT mice,63.46±11.51%
same,NOR discrimination index (NOR-DI),WT and APP/PS1 mice [3]; [5],0.40±0.13
same,NOR discrimination index (NOR-DI),WT and APP/PS1 mice [3]; fingolimod-treated WT mice,0.47±0.08
CCc1cc(/C(C)=N/OCc2ccc(C3CCCCC3)c(C(F)(F)F)c2)ccc1CN1CC(C(=O)O)C1 [Siponimod],Symbol Digit Modalities Test (SDMT) oral score,"[4]; compared with placebo, study months 12 and 24",benefit in favor of Siponimod
same,Brief Visuospatial Memory Test-Revised,[4]; compared with placebo,no statistically significant differences between groups
same,PASAT score,[4]; compared with placebo,no statistically significant differences between groups
same,low contrast visual acuity test,[4]; compared with placebo,small benefit in favor of Siponimod
CC(C)Oc1ccc(-c2nc(-c3cccc4c3CC[C@@H]4NCCO)no2)cc1C#N [Ozanimod],cognitive processing speed as assessed by the Symbol Digit Modalities Test,[4]; compared to IFNβ1a treatment,improved
same,loss of thalamic volume,[4]; compared to IFNβ1a treatment,slower
